Row | Compound | melting point
1 | O=C(Nc1nc(C(Cl)(Cl)Cl)ns1)c1ccc([N+](=O)[O-])cc1 | 214 °C
2 | CN1CCN(c2ccc(S(=O)(=O)c3ccccc3)c3ccccc23)CC1 | 71 to 72 °C
3 | COC(=O)c1ccc2sc(C)c(Cl)c2c1 | 85 to 86 °C
4 | Cc1ccc(S(=O)(=O)NCCN(C(=O)c2ccccc2C(=O)c2ccccc2)C(C)C)cc1 | 135 to 137 °C
5 | Cn1cc(C(=O)NCc2ccc(Cl)cc2)c(=O)c2cc(Br)oc21 | 232 to 233 °C
6 | COc1ccc(-c2nn3c(N4CCCC4)nnc3c3ccccc23)cc1 | 196 to 198 °C
7 | CC(=O)NC(Cc1ccc(CC(=O)OC(C)(C)C)cc1)C(=O)OCc1ccccc1 (centres undefined) | 170 to 172 °C
8 | COc1cc(OC)nc(Oc2cccc(Cl)c2NS(C)(=O)=O)n1 | 147 to 148 °C
9 | CCOCCc1ccc(OCCNc2nc(C)nc(C)c2Cl)c(C)c1 | 61 to 63 °C
10 | O=C(Nc1nccc2ccc(CO)cc12)c1ccccc1 | 190 to 193 °C
11 | CCCCNc1nc(N)nc(N)n1 | 167 °C
12 | Cc1noc(C)c1-c1cn(Cc2ccccc2)c(=O)c2ccncc12 | 159 to 161 °C
13 | O=Cc1ccc2ccc3c4ccccc4ccc3c2c1 | 177 to 178 °C
14 | O=C1c2cccc3cc4ccccc4c(c23)C(=O)N1CCCNCCCCNCCCN1C(=O)c2cccc3cc4ccccc4c(c23)C1=O | 183 °C
15 | CNC(=S)N1CCCC(N2CCC(Nc3nc4ccccc4n3Cc3ccc(F)cc3)CC2)C1 (centres undefined) | 219 °C
16 | O=C(O)c1cc(F)c(F)cc1NC1CC1 | 175 to 176 °C
17 | CC12CCC(=O)C(CSc3ccccc3)=C1CCC1C2CCC2(C)C1C=CC2(C)O (centres undefined) | 147 °C
18 | CC(C)(C)Oc1ccc(I)cc1 | 40 to 41.5 °C
19 | CC(C)C(C#N)c1ccc(O)c(O)c1 (centres undefined) | 134 to 136 °C
20 | N#Cc1ccccc1CN1CCC(=O)C(C(c2ccc(F)cc2)c2ccc(F)cc2)C1 (centres undefined) | 83 to 84 °C
21 | O=C(c1ccc(Nc2ccnc3cc(C(F)(F)F)ccc23)cc1)N1CCC(O)(c2cccc(C(F)(F)F)c2)CC1 | 278 to 279 °C
22 | O=[N+]([O-])c1ccc(-c2cc3c(Nc4cccc(Cl)c4)ncnc3[nH]2)cc1 | > 250 °C
23 | CC(=O)Nc1nc(C)c(S(=O)(=O)N(CCO)CCO)s1 | 204 °C
24 | O=C(c1ccc(-c2cccc3ccccc23)cc1)N1Cc2cccn2Cc2ccccc21 | 170 to 171 °C
25 | CC(=O)OC1CC2C3CCC(C(C)CCCC(C)C)C3(C)CCC2C2(C)CC(F)C(=O)CC12 (centres undefined) | 153 to 156 °C

Row | Compound | melting point
26 | CC(C)NC1=NS(=O)(=O)c2cc(Br)ccc2N1 | > 220 °C
27 | CC1CCN(c2ccccc2C(=O)c2ccccc2)CC1 | 82 °C
28 | CCCC(=O)c1cccc(NC(=O)C=C(C)Cl)c1 | 106 °C
29 | O=CN(O)C1(CS(=O)(=O)c2ccc(Oc3ccc(OC(F)(F)F)cc3)cc2)CCC2(CC1)OCCO2 | 133 to 134 °C
30 | CNC(=O)C(C)Oc1cc(-c2nn(C)c(C(F)(F)F)c2Cl)c(F)cc1Cl (centres undefined) | 134 to 136 °C
31 | CCCCCCCCCCCCCC(=O)NCCCSc1ccncc1 | 80 to 81 °C
32 | CN(C)C(=O)c1ccc(NC(=O)C(C)(C)C)cc1C(F)(F)F | 199 to 200 °C
33 | CCOC(=O)N1CCC(Nc2ccc(C(F)(F)F)c([N+](=O)[O-])c2)CC1 | 127 °C
34 | Cc1ccc(Cc2cnc(NCCCCc3ncc(I)cc3C)[nH]c2=O)cn1 | 160 to 162 °C
35 | COc1ccc(C2(C#Cc3nccn3C)CCC(=O)CC2)cc1OC1CCCC1 | 137 to 138 °C
36 | CC(=O)NCCOC(=O)C1CCn2c1cc(C)c2C(=O)c1ccc(Cl)n1C (centres undefined) | 156 to 157 °C
37 | COc1ccc2c3c([nH]c2c1)C(=O)N=NC3=O | > 260 °C
38 | COC(=O)COc1ccc(-c2ccc(C(=O)O)cc2)cc1-c1ccc2c(c1)C(C)(C)CCC2(C)C | 104 to 106 °C
39 | CC1(C)CCC(C)(C)c2c(OCc3ccc(C(F)(F)F)cc3)cc(C(O)C#Cc3ccc(C(=O)O)cc3)cc21 (centres undefined) | 222 °C
40 | N#CCC1OC(n2cnc3c(NN4CCCCC4)nc(Cl)nc32)C(O)C1O (centres undefined) | 192 to 193 °C
41 | CSCCOC(=O)N(C)c1cnc(-c2cncc(F)c2)s1 | 115 to 117 °C
42 | NC(=O)CNS(=O)(=O)c1ccc(CCN2CC=C(c3c[nH]cc3-c3ccncc3)CC2c2ccc(F)cc2)cc1 (centres undefined) | 230 to 233 °C
43 | O=C(Nc1ccc(N2CCCC2)nc1)c1cc2nc(C(F)(F)F)ccc2n1Cc1cccc(F)c1 | 219 to 220 °C
44 | CCCCCCCCCCC1CNC(=O)O1 (centres undefined) | 86 to 87 °C
45 | O=C(O)c1cc2cccc(OCc3ccccc3)c2[nH]1 | 166 to 168 °C
46 | COCCOC1c2ccn3c(Br)c(C)nc3c2N(C(C)=O)C(c2ccccc2)C1OC(=O)C(C)(C)C (centres undefined) | 166 to 167 °C
47 | Cn1c(N=C=O)c(-c2ccccc2)c2cc([N+](=O)[O-])ccc21 | > 250 °C
48 | COC(=O)c1cc(O)c2nc(C)n(C)c2c1 | 286 °C
49 | CC(C)COC(=O)Nc1ccc(Br)cc1 | 95 to 96 °C
50 | CCC(NS(C)(=O)=O)c1ccc(Cl)c2nc3n(c12)CCCN3c1ccc(Cl)cc1Cl (centres undefined) | 125 to 126 °C

Row | Compound | melting point
51 | CCOC(=O)c1nc2ccc(F)cc2n(CC)c1=O | 99 to 102 °C
52 | O=C(NCC(=O)N1CCN(C(=O)c2cc(C(F)(F)F)cc(C(F)(F)F)c2)[C@H](Cc2c[nH]c3ccccc23)C1)c1ccccc1 | 123 to 135 °C
53 | O=C/C=C/c1ccc2ccccc2n1 | 85 °C
54 | BrCC(=CSc1ccccc1Br)c1ccccc1 | 65 °C
55 | NC(=Nc1ccc(N2CCNCC2)cc1)c1cccs1 | 180 °C
56 | CC1CC2=CC(=O)CCC2C2C(O)CC3(C)C(=O)CCC3C12 (centres undefined) | 200 °C
57 | C=C1c2ccccc2CC(=O)c2ccccc21 | 84 to 86 °C
58 | Cc1ccc(C(=O)Nc2cc(F)ccc2F)cc1 | 108 to 110 °C
59 | O=[N+]([O-])c1ccc(F)cc1Nc1ccc(F)cc1 | 115 to 116 °C
60 | Nc1nc2ccc(C(O)C(CO)N3CCC(Cc4ccccc4)CC3)cc2s1 (centres undefined) | 155 to 157 °C
61 | C=Cc1ccc(C=CC#N)cc1 | 45.8 °C
62 | COc1ccccc1CN[C@H]1CCCN[C@H]1c1ccoc1 (relative stereo) | > 247 °C
63 | CC(=Cc1ccc(N(C)C)cc1)C(=O)O | 190 to 194 °C
64 | CCOCc1nc2c(N)nc3cc(-c4cccc(C(N)=O)c4)cnc3c2n1CC(C)(C)O | > 250 °C
65 | CC(C)(C)C(=O)Nc1ccc(C=CC(=O)N2CCc3c([nH]c4ccccc34)C2c2ccc3c(c2)OCO3)cc1 (centres undefined) | 172 to 174 °C
66 | Cc1noc(CCCCCCCOc2ccc(C3=NCCO3)cc2)c1CCl | 103 to 104 °C
67 | CCCCCCCCCCCCCCCCSCC(CNS(=O)(=O)CCCCl)NC(C)=O (centres undefined) | 86 to 88 °C
68 | Cc1cc(-n2cnnn2)cc2ccoc12 | 118 °C
69 | NC(=O)c1nc(-c2cccc(O)c2)nc2c1[nH]c(=O)n2C1CCOCC1 | 361 to 363 °C
70 | O=S(=O)(Nc1ccc(Cl)cc1C1=NN(c2ccccc2)CC1)C(F)(F)F | 138 to 163 °C
71 | CCN1CCc2c(c(Br)cc([N+](=O)[O-])c2NC(C)=O)C1 | 168 °C
72 | c1ccc2[nH]c(SSCCSSc3nc4ccccc4[nH]3)nc2c1 | 190 to 192 °C
73 | CCOC(=O)NNC(=O)Cc1c(C)cc(C)cc1C | 184 to 186 °C
74 | COc1ccc(C(=O)Nc2cc([N+](=O)[O-])ccc2C)cc1OC | > 300 °C
75 | CS/C=C(/C)n1c(=O)n(C)c2cc(F)ccc21 | 110 °C

Row | Compound | melting point
76 | O=C(O)C1=Cc2cc(Cl)cc(-c3nc4ccccc4[nH]3)c2OC1C(F)(F)F (centres undefined) | > 300 °C
77 | CCN(CC)CCNC(=O)c1cc(Cl)c(NS(=O)(=O)c2ccc3ccccc3c2)cc1OC | 148 to 149 °C
78 | COC(=O)c1ccc(C)c(-n2c(C)cc(OCc3ccccc3CNC(=O)Nc3cc(C(C)(C)C)nn3-c3cccc(OCCO)c3)c(Cl)c2=O)c1 | 147 to 148 °C
79 | Cn1c(=O)oc2cc(CCN3CCN(c4ccc(F)cc4)CC3)ccc21 | 161 to 164 °C
80 | Cn1c(=O)oc2cc3c(cc21)OCC31C(=O)N(C(c2ccccc2)c2ccccc2)c2ccccc21 (centres undefined) | 228 to 229 °C
81 | N#Cc1cccc(-c2ccc(O)c(C=O)c2)c1 | 139 to 140 °C
82 | CCCc1c(O)ccc2c(=O)cc(CCC(=O)OCC)oc12 | 127 to 128 °C
83 | COc1ccc(CN2C(=O)CN(Cc3ccc(C(=O)O)cc3)S2(=O)=O)c(OC)c1 | 175 to 177 °C
84 | Cc1cc([N+](=O)[O-])ccc1NC(=O)C1=C(O)N(C)S(=O)(=O)c2sccc21 | 189 to 191 °C
85 | COC(=O)c1cc(CCCNCc2ccccc2)ccc1OCc1ccccc1 | 75 to 77 °C
86 | COC(=O)c1coc(CN2C(=O)C3(COc4cc5c(cc43)OCO5)c3ccccc32)n1 (centres undefined) | 183 to 185 °C
87 | O=C(NC12CC3CC(CC(C3)C1)C2)c1cc(O)c(O)cc1Cl | 225 to 230 °C
88 | COC(=O)CN(CCN(CCN(CC(=O)OC)S(=O)(=O)c1ccc(C)cc1)S(=O)(=O)c1ccc(C)cc1)S(=O)(=O)c1ccc(C)cc1 | 141 to 142 °C
89 | ClCc1coc(-c2cc3ccccc3s2)n1 | 150 to 151 °C
90 | COc1ccc(-c2ccc(C(=O)Nc3cc4ncc(CN5CCCC5)cc4cc3F)cc2)cc1 | 184 to 186 °C
91 | CNC(=O)Nc1ccc2c(c1)C(C)(N)c1c-2[nH]c(=O)c2nccn12 (centres undefined) | 200 °C
92 | CCCCCCCCCCOc1cc(OCCCCCCc2cccc(O)c2O)cc(C(=O)O)c1 | 86 to 88 °C
93 | O=C(O)C(O)c1cccnc1 (centres undefined) | 140 °C
94 | OC(CN1CCCCC1)c1cc(C(F)(F)F)nc2c(C(F)(F)F)cccc12 (centres undefined) | 130 °C
95 | CCOc1ccc2c(=S)cc[nH]c2c1 | 171 to 174 °C
96 | O=C1NCC[C@@H]1NCc1ccc(OCc2cccc(F)c2)cc1 | 140 to 144 °C
97 | Cc1cc(C)c(S(=O)(=O)NCC2CCN(S(=O)(=O)c3c(C)cc(C)cc3C)CC2)c(C)c1 | 202 to 204 °C
98 | C=Cc1ccc(C(=O)O)cc1C12CC3CC(CC(C3)C1)C2 | 315 to 317 °C
99 | Cc1cc(-c2cc(C(F)(F)F)nc(-c3ccnc(-c4cccc(S(N)(=O)=O)c4)c3)n2)ccc1Cl | 234 °C

Reference: a melting point compilation (Tetko et al.; mined from patent text by program, amines drawn as free bases though some values may be those of a salt)
